From BindingDB's records for doi:10.7270/Q2K072QS (Burnham Center For Chemical Genomics, 2010)

target: G-protein coupled receptor 35 (Homo sapiens, UniProt Q9HC97); assay: blockers of orphan receptor GPR35 – imaging, high-content imaging, selectivity assay for GPR55 agonist project, SAR follow-up (AID 2338); settings: not given
Sequence (Q9HC97 whole entry): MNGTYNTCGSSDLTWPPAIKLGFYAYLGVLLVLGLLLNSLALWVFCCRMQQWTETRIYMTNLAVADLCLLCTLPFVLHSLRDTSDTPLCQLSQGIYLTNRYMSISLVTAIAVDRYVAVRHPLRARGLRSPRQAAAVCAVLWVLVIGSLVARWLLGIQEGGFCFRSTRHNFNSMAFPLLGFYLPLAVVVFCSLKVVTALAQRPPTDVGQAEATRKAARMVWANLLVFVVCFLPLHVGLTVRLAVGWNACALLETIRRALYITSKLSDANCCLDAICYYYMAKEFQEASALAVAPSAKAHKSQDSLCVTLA

Row | IC50 [µM] | Structure (SMILES)
1 | > 32 | C=CCN(CC=C)S(=O)(=O)c1ccc(NC(=S)NC(=O)c2ccc(-c3ccccc3)cc2)cc1
2 | > 32 | COc1ccccc1C=CC(=O)NC(=S)Nc1ccc(S(=O)(=O)N(C)c2ccccc2)cc1
3 | > 32 | O=C(CSc1nc2ccccc2s1)N1c2ccccc2Sc2ccc(C(F)(F)F)cc21
4 | > 32 | Cc1cccc(N2CCN(C(=O)c3cc(S(=O)(=O)N(C)C)ccc3N3CCCC3)CC2)c1C
5 | > 32 | CCCN(CCC)Cc1c(C(=O)NN=Cc2c[nH]c3ccccc23)nnn1-c1nonc1N
6 | > 32 | C/C(C=NNC(=O)c1nnn(-c2nonc2N)c1CN1CCC(C)CC1)=C/c1ccccc1
7 | > 32 | CCCN(CCC)Cc1c(C(=O)NN=C/C(C)=C\c2ccccc2)nnn1-c1nonc1N [1-(4-azanyl-1,2,5-oxadiazol-3-yl)-5-[(dipropylamino)methyl]-N-[[(Z)-2-methyl-3-phenyl-prop-2-enylidene]amino]-1,2,3-triazole-4-carboxamide]
8 | > 32 | COc1cc2c(cc1NC(=O)C(C)Sc1ccc(NC(C)=O)cc1)oc1ccccc12 (stereo unspecified) [2-[(4-acetamidophenyl)thio]-N-(2-methoxy-3-dibenzofuranyl)propanamide]
9 | > 32 | Cc1occc1C(=O)Nc1ccc(OCc2ccccc2)cc1 [2-methyl-N-(4-phenylmethoxyphenyl)furan-3-carboxamide]
10 | > 32 | CC(C)=CC(=O)Nc1ccc(OCc2ccccc2)cc1 [3-methyl-N-(4-phenylmethoxyphenyl)but-2-enamide]
11 | > 32 | COc1cc2c(cc1NC(=O)CSc1ccccc1)oc1ccccc12 [MLS000579482]
12 | > 32 | COc1ccc2c(c1)cc(C)c1nnc(SCC(=O)N(C)c3nc(-c4ccccc4)cs3)n12 [MLS-0102574.0001]
13 | > 32 | CC(C)Oc1ccc(S(=O)(=O)N2CCOCC2)cc1NC(=O)c1ccc(N2CCCC2=O)cc1 [N-(5-morpholin-4-ylsulfonyl-2-propan-2-yloxy-phenyl)-4-(2-oxidanylidenepyrrolidin-1-yl)benzamide]
14 | > 32 | COc1ccc(S(=O)(=O)N2CCOCC2)cc1NC(=O)c1cc2c(s1)CCCC2 [N-[2-methoxy-5-(4-morpholinylsulfonyl)phenyl]-4,5,6,7-tetrahydro-1-benzothiophene-2-carboxamide]
15 | > 32 | COc1ccc2cc(C)c3nnc(SCC(=O)Nc4nc(-c5ccc(F)cc5)cs4)n3c2c1 [N-[4-(4-fluorophenyl)-1,3-thiazol-2-yl]-2-[(8-methoxy-4-methyl-[1,2,4]triazolo[4,3-a]quinolin-1-yl)sulfanyl]ethanamide]
16 | > 32 | COc1ccc(-c2csc(NC(=O)CSc3nnc4c(C)cc5ccccc5n34)n2)cc1 [N-[4-(4-methoxyphenyl)-1,3-thiazol-2-yl]-2-[(4-methyl-[1,2,4]triazolo[4,3-a]quinolin-1-yl)sulfanyl]ethanamide]
17 | > 32 | O=C(CSc1nc2ccccc2s1)N1c2ccccc2Sc2ccc(Cl)cc21 [SMR000198068]
18 | > 32 | CC(C)NS(=O)(=O)c1ccc(NC(=S)NC(=O)c2ccc(-c3ccccc3)cc2)cc1 [SMR000200853]
19 | > 32 | CC(Sc1nc2cc(Cl)ccc2s1)C(=O)Nc1cccc(S(=O)(=O)N2CCOCC2)c1 (stereo unspecified) [SMR000243093]
20 | > 32 | CN(C)S(=O)(=O)c1ccc(N2CCCC2)c(C(=O)N2CCN(c3ccc([N+](=O)[O-])cc3)CC2)c1 [SMR000370611]

same assay, conditions: inactive by the depositor's call

Row | IC50 [µM] | Structure (SMILES)
21 | 24.4 | CCCN(CCC)Cc1c(C(=O)NN=C/C(C)=C\c2ccco2)nnn1-c1nonc1N [1-(4-azanyl-1,2,5-oxadiazol-3-yl)-5-[(dipropylamino)methyl]-N-[[(Z)-3-(furan-2-yl)-2-methyl-prop-2-enylidene]amino]-1,2,3-triazole-4-carboxamide]
